The subject of one assay is db/db mice. Nature of the assay: In vivo hypoglycemic effect in db/db mice (OGTT, fructosamine, insulin, HOMA-IR). Details: species or system mouse. Here is the method:
Six-week old male C57/BL6 mice (n = 6) were acquired from the Animal Center of the College of Medicine, National Taiwan University (Taipei, Taiwan) and 6-week-old male db/db mice (BKS.Cg-Dock7m +/+ Leprdb/JNarl) (n = 12) were acquired from the National Laboratory Animal Center (Tainan, Taiwan). Experimental animals were allowed to acclimate to the controlled photoperiod (a cycle of 12-h light/12-h dark), humidity (40–60% relative humidity) and temperature (22 ± 2 °C) with ad libitum supply of standard chow diets and drinking water for one week prior to the experimental treatment in accordance with the Guide for the Care and Use of Laboratory Animals (Institute of Laboratory Animal Resources Commission on Life Sciences, 2011). Acclimated animals were randomly separated into three cohorts: control group (C57/BL6 mice treated with vehicle for two weeks, n = 6), db/db group (db/db mice treated with vehicle for two weeks, n = 6), and db/db+SP group (db/db mice treated with 100 mg/kg scoparone for two weeks, n = 6). (IACUC Approval NO.: 20140532; Duration: 2015.01.01–2015.12.31; Ethical Committee: National Taiwan University College of Medicine and College of Public Health Institutional Animal Care and Use Committee (IACUC).)
The control mice or diabetic mice with or without drugs treatment for 2 weeks received an oral glucose challenge (2 g/kg). Mice were under slight anesthesia by an intraperitoneal injection of pentobarbital (50 mg/kg) and blood samples (20–50 μL via orbital sinus at each time point) were collected following: 0, 15, 30, 60, 90, and 120 min after delivery of the glucose load. Blood glucose levels were determined using SURESTEP blood glucose meter (Lifescan). Glucose tolerance was determined and performed as the curve (AUC) and delta AUC (ΔAUC) using Prism 5 software (GraphPad).
To determine the amount of insulin and fructosamine after fasting overnight, blood samples (0.5–0.8 mL) of euthanasia animals were collected. After centrifugation, the serum was analyzed by insulin and fructosamine immunoassay kits according to the respective instructions of the manufacturer (Mercodia AB Inc., Uppsala, Sweden; Hospitex Diagnostics Lp, League City, TX, USA). The homeostasis model assessment of insulin resistance (HOMA-IR) index is calculated with the formula of the values of fasting glucose and insulin divided by 22.5 as previously described.

The subject of another assay is MRP2. In words: Protein expression of MRP2 (western blot). Format: cell-based, human. Here is the method: Figure 7 The protein expressions of MRP2 after 6,7-diprenoxycoumarin (50) treatment. Hep3B cell (1 × 10^6) were treated with 50 (5, 10, 20 and 40 μM) for 24 h. Treated cell lysates were prepared as described in the Methods section and the expression of MRP2 was analyzed by western blot.
1 × 10^6 cells were seeded in a 10 cm plate, incubated at 37 °C for overnight and treated with various concentrations of compounds for the indicated times. After incubation, the culture medium was removed and washed twice with 2 mL ice-cold 1× PBS. Three hundred μL of protein lysis buffer (150 mM NaCl, 50 mM Tris-HCl (pH 7.4), 1% SDS, 1% Triton X-100, 1 mM PMSF) was added into each plate, scraped with a rubber policeman, collected into a premarked microtube and the incubated in ice for 1 h, sonicated by Ultrasonic Cell Disruptor for three time at 5 s each. The cell lysated was cleared by centrifugation at 12,000× g for 15 min at 4 °C. Supernatants were transferred into a fresh marked microtube and stored at −20 °C for future use.
Protein concentration of each sample was determined using a BCA Protein Assay Kit (Pirece®, Thermo Scientific). Different percentages of SDS-PAGE gels were prepared according to the molecular size of proteins of interest. After complete polymerization of stacking gels, each sample with equal amount of total protein was separated in polyacrylamide gels (stacking gel: 50 v, 60 min; separating gel: 100 v, 60 min). After separating, wet-transfer method was utilized to transfer proteins onto the PVDF membrane. The gels were assembled in the transfer sandwich and put in a transfer tank filled with transfer buffer (25 mM glycine, 0.15% ethanolamine, 20% methanol). The electro-transfer was performed at the voltage of 100 volt for 80 min at 4 °C. After transfer, PVDF-membrane was blocked with 5% BSA in 1× TBS-Tween at room temperature for 1 h. Membrane was washed with 10 mL 1× TBS-Tween three times and incubated with primary antibodies overnight at 4 °C with gentle agitation. […] The emitted fluorescence from the membrane was caught on a LAS-4000 biomolecule imager (FUJI.).
(In general: Immunoblotting shows a protein as a band on a membrane.)

Where [1] appears, read: db/db mice, 100 mg/kg P.O., two weeks.

Consider `COc1cc2ccc(=O)oc2cc1OC` [Compound 39, scoparone], for which, in the assay with db/db mice (setting [1]), the HOMA-IR result was “did not change”, the insulin level entry was “did not change”, the level of fructosamine entry is on record as “decreased” and the “oral glucose tolerance test (OGTT)” value is “significant improvement”. For the same molecule, the “protein expression of MRP2 (CAR downstream gene)” value in the assay on MRP2 (Figure 2, after scoparone or CITCO treatment) is “upregulated”.
For `CC(C)=CCOc1cc2ccc(=O)oc2cc1OCC=C(C)C` [Compound 50, 6,7-diprenoxycoumarin], in the assay on db/db mice (even by intraperitoneal injection), the “in vivo efficacy (blood sugar lowering)” value is “didn’t show any in vivo efficacy”. In addition, in the assay on MRP2 (Hep3B, 5, 10, 20 and 40 μM, 24 h), the “protein expression level of MRP2” value is “enhanced”.

The record behind these values is PMC7796031, “Studies of Coumarin Derivatives for Constitutive Androstane Receptor (CAR) Activation” (Molecules, 2020).
